Where “and” joins values, the source holds several entries; their conditions need not be identical. Equal values may be shown once. Entries after “also recorded” stand apart in the source; their conditions may differ.
Key:
[1] = Detection of marein and metabolites in rat plasma and urine after tail vein injection (UPLC-Q-TOF-MS/MS); assay type: in vivo, Sprague–Dawley rats; set-up: key to Location (matrix in which the metabolite was detected): P: plasma; U: urine; conditions: for Location (matrix in which the metabolite was detected): tail vein injection of marein 10 mg/kg, plasma 0-1 h, urine 24 h; for prototype components after tail vein injection: tail vein injection 10 mg/kg
Protocol: (§1) Forty-eight healthy male Sprague–Dawley rats, SPF grade, weighing 250 ± 10 g, were purchased from Huafukang Laboratory Animal Technology Co. Ltd. (Beijing, China). Before use, all animals were reared for 5 days at a constant temperature of 25°C, a humidity of 40–60%, and a 12-hour light-dark cycle.
After adaptive feeding of 24 SD rats for 1 week, they were randomly divided into 4 groups, namely: blank blood sample group, blank urine group, marein blood sample group, and marein urine group. The experimental animals were fasted 12 hours before the administration and free drinking water. Marein was dissolved in appropriate amounts of saline and administered to SD rats via tail vein injection at a dose of 10 mg/kg. The blank group was injected with an equal volume of saline through the tail vein.
(§2) Blood samples were collected from the fundus venous plexus of rats at 0, 0.08, 0.25, 0.5, and 1 h before and after gavage and injection. The blood samples were centrifuged (9,900 g, 10 min) to obtain plasma samples. All plasma samples were stored at −80°C until they were processed and analyzed.
(§3) Urine samples were collected for 24 hours by gavage and injection in a metabolic cage. All urine samples were stored at −80°C until they were processed and analyzed.
(§4) Take 100 μL of plasma from each group at the same time point and combine, add 900 μL of acetonitrile, vortex for 3 min, and centrifuge (4°C, 19,500 g) for 10 min. Take the supernatant, blow-dry, and concentrate and then add 900 μL of acetonitrile. Vortex for 3 minutes and then centrifuge (4°C, 19,500 g) for 10 minutes. Take the supernatant, dry it with nitrogen, and concentrate. Add 100 μL of 50% methanol to reconstitute the residue (methanol:water = 1:1), vortex, and centrifuge (4°C, 19,500 g) for 10 minutes. The supernatant was taken and analyzed by UPLC-Q-TOF-MS/MS. The blank plasma sample was processed in the same way.
(§5) Take 400 μL of urine, add 800 μL of methanol, vortex for 3 minutes, and centrifuge (4°C, 19,500 g) for 10 minutes. Take the supernatant, blow-dry, and concentrate and then add 800 μL of methanol to reconstitute, vortex for 3 minutes, and centrifuge (4°C, 19,500 g) for 10 minutes. In parallel, the supernatants were combined, dried, concentrated with nitrogen, and finally reconstituted with 100 μL 50% methanol (methanol:water = 1:1). The supernatant was analyzed by UPLC-Q-TOF-MS/MS. The blank urine sample was processed in the same way.
(§6) Used UPLC-Q-TOF-MS/MS 9030 system (Shimadzu, Japan), chromatography column: Shim-pack GISS C18 column (100 × 2.1 mm, 1.9 μm). Mobile phase: A phase 0.1% formic acid water, B phase acetonitrile, gradient elution, elution gradient: 0∼1 min, 5∼10% B; 1∼2 min, 10% B; 2∼3 min, 10∼15% B; 3∼5 min, 15∼20% B; 5∼11 min, 20∼40% B; 11∼13 min, 40∼80% B; 13∼15 min, 80∼95% B; 15∼17 min, 95% B; 17∼20 min, 5% B. Flow rate: 0.3 mL/min; column temperature: 40°C.
(§7) MS operation conditions were as follows. The Q-TOF-MS spectrometer was configured with an electrospray ion source (ESI) operating in the negative and positive ion modes. Ion source interface voltage is −3.0 Kv. Nitrogen is used as the drying gas and the atomizing gas. The drying gas flow rate is set to 10 L/min, and the atomizing gas flow rate is set to 3.0 L/min. Air is used as heating gas, and the flow rate is set to 10 L/min; argon is used as collision gas; desolvent tube temperature is 250°C; heating block temperature is 400°C; and interface temperature is 300°C. Scan modes are MS Scan (m/z 100–500; 500–1,000) and MS/MS (m/z 50–500; 50–1,000). The collision energy (CE) is 35 ± 17 V.
(§8) The data obtained by UPLC-Q-TOF-MS/MS were analyzed with Formula Predictor Server software. Target fragments are analyzed by ACD/Labs software accurate mass calculator (Shimadzu City, Japan).

[2] = Detection of marein and metabolites in rat plasma and urine after oral administration (UPLC-Q-TOF-MS/MS); assay type: in vivo, Sprague–Dawley rats; set-up: key to Location (matrix in which the metabolite was detected): P: plasma; U: urine; conditions: for Location (matrix in which the metabolite was detected): oral gavage of marein 200 mg/kg, plasma 0-1 h, urine 24 h
Protocol: as §1
After adaptive feeding for 1 week, 24 SD rats were randomly divided into 4 groups: blank blood sample group, blank urine group, marein blood sample group, and marein urine group. The experimental animals were fasted 12 hours before the administration and free drinking water. Marein was dissolved with an appropriate amount of CMC-Na solution and was administered to SD rats by gavage at a dose of 200 mg/kg. The blank blood sample group was given an equal volume of CMC-Na solution.
as §2, §3, §4, §5
Used UPLC-Q-TOF-MS/MS 9030 system (Shimadzu, Japan), chromatography column: Shim-pack GISS C18 column (100 × 2.1 mm, 1.9 μm). […]
as §8

[3] = set-up: method as in PMID 27387397; conditions: healthy volunteers, tea of C. tinctoria; cited from earlier work
[4] = Metabolic stability of marein in rat liver microsome incubation; assay type: in vitro ADME; conditions: for Area% (remaining percentage): 37°C, NADPH
Protocol: The total volume of the incubation system is 500 μL, including phosphate buffer (0.1 M, pH 7.4) 470 μL, and NADPH generating system 30 μL (Solution A: 25 μL and Solution B: 5 μL). The process is completed on an ice bath.
Marein blank control group: Take the above incubation system, add 5 μL of aqueous solution to an ice bath, incubate at 37°C for 5 min, and then add 15 μL of liver microsomes to the ice bath. After gently mixing the incubation system by hand, start the incubation at 37°C in a water bath. The incubation time is 0, 5, 15, 30, 45, 60, 90, and 120 min, and each sample is paralleled 3 times. When the reaction is complete, stop the reaction with the same volume of ice acetonitrile to completely precipitate the protein, centrifuge at 4,200 g for 10 min, aspirate the supernatant and centrifuge at 19,500 g for 10 min, and inject 2 μL for analysis.
Marein inactivated liver microsomes group: First inactivate liver microsomes, take the incubation system, add 5 μL of the marein reference substance stock solution on an ice bath, incubate at 37°C for 5 min, and then add 15 μL of inactivation to the ice bath. The following procedures were similar to the blank control group.
Marein liver microsomes group: Take the incubation system, add 5 μL of the marein reference substance stock solution to an ice bath, incubate at 37°C for 5 min, and then add 15 μL of liver microsomes to the ice bath. The following operation was the same as the blank control group.
as §6, §7
In the study of metabolism in vivo, the injection volume was 5 μL, while that in vitro metabolism was 2 μL.
In the liver microsomes study, the 0 min peak area of marein was regarded as 100%, and other time points were compared with the 0 min peak area to obtain the remaining percentage (area%). According to the natural logarithm of area% and incubation, the time slope k was obtained by linear regression. According to formula (1), the half-life t1/2/min of marein in liver microsomes could be obtained. According to formulas (2)–(5), the half-lives in liver microsomes, intrinsic clearance rate CLint, in vivo intrinsic clearance rate CL′int, liver clearance rate CLH, and liver extraction rate ER were calculated.(1) t1/2=−0.693/k, (2) CLint=0.693/t1/2incubationmL/microsomesmg, (3) CLint′=0.693/t1/2·incubationmL/microsomesmg·Liverg/BWkg·microsmesmg/Liverg, (4) CLH=Q·CLint′/Q+CLint′, (5) ER=CLH/Q.
The physical and chemical parameters: The liver tissue per kilogram of body weight for rat (Liver (g)/BW (kg)) was 40 g. Q is hepatic blood flow (66 ml/min/kg for rat), and CL′int is the intrinsic clearance. The microsomal protein per gram of liver tissue (microsomes (mg)/liver (g)) was 45 mg.

O=c1cc(-c2ccc(O)c(O)c2)oc2c(O)c(O[C@@H]3O[C@H](CO)[C@@H](O)[C@H](O)[C@H]3O)ccc12 [M13]
Location (matrix in which the metabolite was detected) ([1]; listed as M′10): P, U | Location (matrix in which the metabolite was detected) [2]: P

O=C(/C=C/c1ccc(O)c(O)c1)c1ccc(O)c(O)c1O [M24, okanin]
Location (matrix in which the metabolite was detected) [1]: U | Location (matrix in which the metabolite was detected) [2]: P

O=C1C[C@@H](c2ccc(O)c(O)c2)Oc2c1ccc(O[C@@H]1O[C@H](CO)[C@@H](O)[C@H](O)[C@H]1O)c2O [M′1, flavanomarein]
prototype components after tail vein injection [1]: detected | Location (matrix in which the metabolite was detected) [1]: P, U

O=C(/C=C/c1cccc(O)c1)c1ccc(O[C@@H]2O[C@H](CO)[C@@H](O)[C@H](O)[C@H]2O)c(O)c1O [M′11]
Location (matrix in which the metabolite was detected) [1]: U

O=C(/C=C/c1ccc(O)cc1)c1ccc(O[C@@H]2O[C@H](CO)[C@@H](O)[C@H](O)[C@H]2O)c(O)c1O [M′12]
Location (matrix in which the metabolite was detected) [1]: U

O=C(/C=C/c1ccc(O)c(O)c1)c1ccc(O[C@@H]2O[C@H](CO)[C@@H](O)[C@H](O)[C@H]2O)cc1O [M′13]
Location (matrix in which the metabolite was detected) [1]: P, U

O=C(CCc1ccccc1)c1ccc(O[C@@H]2O[C@H](CO)[C@@H](O)[C@H](O)[C@H]2O)c(O)c1O [M′17]
Location (matrix in which the metabolite was detected) [1]: U

O=C(/C=C/c1ccc(O)c(O)c1)c1ccc(O[C@@H]2O[C@H](CO)[C@@H](O)[C@H](O)[C@H]2O)c(O)c1O [marein]
marein in blood after drinking C. tinctoria tea [3]: no marein is detected | CLint (intrinsic clearance rate) ([4]; SD rat liver microsomes): 0.0065 mL·(min·mg protein)^−1 | t1/2 (in vitro metabolic half-life in liver microsomes) ([4]; SD rat liver microsomes): 2.961538 h | ER (liver extraction rate) ([4]; SD rat, ER=CLH/Q): 0.15 and 0.1506 | CLH (liver clearance rate) ([4]; SD rat, Q 66 ml/min/kg): 9.9382 mL·min/kg | CL′int (in vivo intrinsic clearance rate) ([4]; SD rat, scaled with 40 g liver/kg, 45 mg microsomal protein/g liver): 11.7000 mL·min/kg | half-life ([4]; SD, rat, liver microsomes, pH 7.4, SD rat liver microsomes, read-out: t1/2 (in vitro metabolic half-life in liver microsomes)): 2.96 h | Ln (area%) ([4]; incubation 0 min): 4.61 | Area% (remaining percentage) ([4]; incubation 0 min, 0 min regarded as 100%): 100% | Ln (area%) ([4]; incubation 5 min): 4.59 | Area% (remaining percentage) ([4]; incubation 5 min): 98.69% | Ln (area%) ([4]; incubation 15 min): 4.46 | Area% (remaining percentage) ([4]; incubation 15 min): 86.70% | Ln (area%) ([4]; incubation 30 min): 4.41 | Area% (remaining percentage) ([4]; incubation 30 min): 82.34% | Ln (area%) ([4]; incubation 45 min): 4.36 | Area% (remaining percentage) ([4]; incubation 45 min): 77.93% | Ln (area%) ([4]; incubation 60 min): 4.22 | Area% (remaining percentage) ([4]; incubation 60 min): 68.01% | Ln (area%) ([4]; incubation 90 min): 4.21 | Area% (remaining percentage) ([4]; incubation 90 min): 67.21% | Ln (area%) ([4]; incubation 120 min): 4.14 | Area% (remaining percentage) ([4]; incubation 120 min): 62.76% | metabolic stability in liver microsomes ([4]; rat liver microsomes): good | prototype components after tail vein injection [1]: detected | Location (matrix in which the metabolite was detected) [1]: P, U | prototype in plasma and urine after gavage ([2]; oral gavage 200 mg/kg, 200 mg/kg): no prototype components were found; also recorded: not detected in the original form | marein in plasma after intragastric administration ([2]; preliminary experiments of the team): no marein was found in plasma
